Consider 26 compounds from US9440950B2, “Arginine methyltransferase inhibitors and uses thereof” (Epizyme, Inc., priority 2013, dated 2016).

As usually defined, the EC30 is the concentration at which the effect reaches the 30% level. A low value points to greater potency.

In the test the test system is Mono-Methyl Arginine in RKO cells. As to the kind of experiment: RKO Methylation Assay (In Cell Western). Conditions: Homo sapiens, 72 hours, percent activation. It counts as cell-based. From the text:
RKO Methylation Assay RKO adherent cells were purchased from ATCC (American Type Culture Collection), Manassas, Va., USA. DMEM/Glutamax medium, penicillin-streptomycin, heat inactivated fetal bovine serum, 0.05% trypsin and D-PBS were purchased from Life Technologies, Grand Island, N.Y., USA. Odyssey blocking buffer, 800CW goat anti-rabbit IgG (H+L) antibody, and Licor Odyssey infrared scanner were purchased from Licor Biosciences, Lincoln, Nebr., USA. Mono-methyl arginine antibody was purchased from Cell Signaling Technology, Danvers, Mass., USA. Methanol was purchased from VWR, Franklin, Mass., USA. 10% Tween 20 was purchased from KPL, Inc., Gaithersburg, Md., USA. DRAQ5 was purchased from Biostatus Limited, Leicestershire, UK. RKO adherent cells were maintained in growth medium (DMEM/Glutamax medium supplemented with 10% v/v heat inactivated fetal bovine serum and 100 units/mL penicillin-streptomycin) and cultured at 37° C. under 5% CO2. Cell Treatment, In Cell Western (ICW) for Detection of Mono-Methyl Arginine and DNA Content. RKO cells were seeded in assay medium at a concentration of 20,000 cells per mL to a poly-D-lysine coated 384 well culture plate (BD Biosciences 356697) with 50 μL per well. Compound (100 nL) from a 96-well source plate was added directly to 384 well cell plate. Plates were incubated at 37° C., 5% CO2 for 72 hours. After three days of incubation, plates were brought to room temperature outside of the incubator for ten minutes and blotted on paper towels to remove cell media. 50 μL of ice cold 100% methanol was added directly to each well and incubated for 30 min at room temperature. After 30 min, plates were transferred to a Biotek EL406 plate washer and washed 2 times with 100 μL per well of wash buffer (IX PBS). Next 60 μL per well of Odyssey blocking buffer (Odyssey Buffer with 0.1% Tween 20 (v/v)) were added to each plate and incubated 1 hour at room temperature. Blocking buffer was removed and 20 μL per well of primary antibody was added (mono-methyl arginine diluted 1:200 in Odyssey buffer with 0.1% Tween 20 (v/v)) and plates were incubated overnight (16 hours) at 4° C. Plates were washed 5 times with 100 μL per well of wash buffer. Next 20 μL per well of secondary antibody was added (1:200 800CW goat anti-rabbit IgG (H+L) antibody, 1:1000 DRAQ5 (Biostatus limited) in Odyssey buffer with 0.1% Tween 20 (v/v)) and incubated for 1 hour at room temperature. The plates were washed 5 times with 100 μL per well wash buffer then 2 times with 100 μL per well of water. Plates were allowed to dry at room temperature then imaged on the Licor Odyssey machine which measures integrated intensity at 700 nm and 800 nm wavelengths. Both 700 and 800 channels were scanned. Calculations: First, the ratio for each well was determined by: Each plate included fourteen control wells of DMSO only treatment (minimum activation) as well as fourteen control wells for maximum activation treated with 20 μM of a reference compound. The average of the ratio values for each control type was calculated and used to determine the percent activation for each test well in the plate. Reference compound was serially diluted three-fold in DMSO for a total of nine test concentrations, beginning at 20 μM. Percent activation was determined and EC30 curves were generated using triplicate wells per concentration of compound.
In the case of `COc1ccc(-c2n[nH]cc2CN(C)CCN)cn1` [Compound 5], the concentration for an effect of 30% (EC30) is over 12 µM.
For `CN(CCN)Cc1c[nH]nc1-c1cncc(F)c1` [Compound 7] the value was over 12 µM; for `CN(CCN)Cc1c[nH]nc1-c1ccncc1` [Compound 9], 3.01 to 12 µM; for `COc1cc(-c2n[nH]cc2CN(C)CCN)ccn1` [Compound 11], 3.01 to 12 µM.
As for `COc1cc(-c2n[nH]cc2CN(C)CCN)c(Cl)cn1` [Compound 12], the figure is over 12 µM.
For `CN(CCN)Cc1c[nH]nc1-c1ccc(C(F)(F)F)nc1` [Compound 13, N^1-methyl-N^1-((3-(6-(trifluoromethyl)pyridin-3-yl)-1H-pyrazol-4-yl)methyl)ethane-1,2-diamine] the value was under 3 µM; for `COc1ncc(Cl)cc1-c1n[nH]cc1CN(C)CCN` [Compound 14], over 12 µM.
Compound `COc1ncccc1-c1n[nH]cc1CN(C)CCN` [Compound 15] registered an EC30 of over 12 µM.
With `COc1ccncc1-c1n[nH]cc1CN(C)CCN` [Compound 16], the EC30 is over 12 µM.
In the case of `Cc1ccncc1-c1n[nH]cc1CN(C)CCN` [Compound 17], the EC30 is over 12 µM.
As for `CN(CCN)Cc1c[nH]nc1-c1cncc(C#N)c1` [Compound 18], the figure is over 12 µM.
For `CN(CCN)Cc1c[nH]nc1-c1cncc(Cl)c1` [Compound 19] the value was 3.01 to 12 µM.
For `CN(CCN)Cc1c[nH]nc1-c1ccc(N2CCOCC2)nc1` [Compound 20] the value was 3.01 to 12 µM; for `CC(C)CN(C)c1ccc(-c2n[nH]cc2CN(C)CCN)cn1` [Compound 21], 3.01 to 12 µM.
For `CC(C)Oc1ccc(-c2n[nH]cc2CN(C)CCN)cn1` [Compound 22], the EC30 was under 3 µM.
As for `CN(CCN)Cc1c[nH]nc1-c1ccc(N(C)Cc2ccccc2)nc1` [Compound 23], the figure is 3.01 to 12 µM; as for `CCN(CC)c1ccc(-c2n[nH]cc2CN(C)CCN)cn1` [Compound 24], over 12 µM; as for `CN(CCN)Cc1c[nH]nc1-c1ccc(NCc2ccccc2)nc1` [Compound 25], 3.01 to 12 µM.
As for `CC(C)CNc1ccc(-c2n[nH]cc2CN(C)CCN)cn1` [Compound 26], the figure is over 12 µM; as for `CNCCN(C)Cc1c[nH]nc1-c1ccc(N(C)CCC(C)C)nc1` [Compound 30], 3.01 to 12 µM.
For `CNCCN(C)Cc1c[nH]nc1-c1ccc(N(CC(C)C)CC(C)C)nc1` [Compound 31] the value was over 12 µM; for `CNCCN(C)Cc1c[nH]nc1-c1ccc(N(C)CC(C)C)nc1` [Compound 32, N^1-((3-(6-(isobutyl(methyl)amino)pyridin-3-yl)-1H-pyrazol-4-yl)methyl)-N^1,N^2-dimethylethane-1,2-diamine], under 3 µM.
`CNCCN(C)Cc1c[nH]nc1-c1ccc(N(C)C(C)C)nc1` [Compound 33, N^1-((3-(6-(isopropyl(methyl)amino)pyridin-3-yl)-1H-pyrazol-4-yl)methyl)-N^1,N^2-dimethylethane-1,2-diamine] gave an EC30 of under 3 µM.
For `CCN(CCC(C)C)c1ccc(-c2n[nH]cc2CN(C)CCNC)cn1` [Compound 34, N^1-((3-(6-(ethyl(isopentyl)amino)pyridin-3-yl)-1H-pyrazol-4-yl)methyl)-N^1,N^2-dimethylethane-1,2-diamine] the value was under 3 µM.
In the case of `CNCCN(C)Cc1c[nH]nc1-c1ccc(OCC(C)C)nc1` [Compound 35, N^1-((3-(6-iso-butoxypyridin-3-yl)-1H-pyrazol-4-yl)methyl)-N^1,N^2-dimethylethane-1,2-diamine], the EC30 was under 3 µM.
`CCN(CC(C)C)c1ccc(-c2n[nH]cc2CN(C)CCNC)cn1` [Compound 36] gave an EC30 of 3.01 to 12 µM.
